From article PMC8645336, “Benchmarking a highly selective USP30 inhibitor for enhancement of mitophagy and pexophagy” (Life Science Alliance, 2021)

Key:
Experiment in all cases: biochemical
Design in all cases: Ubiquigent DUB profiler selectivity panel, remaining enzyme activity as % of control
Settings in all cases: read-out: % of control remaining
Ataxin3 = target: T1, Ataxin3 (Homo sapiens, UniProt P54252)
T1 construct: gene ATXN3
Method in brief: (§1)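 CMPD-39 selectivity was profiled at 1-100 μM across >40 DUBs. Cellular engagement used 2 h CMPD-39 pretreatment, then HA-Ub-PA probe for 10 min at 37°C, with USP30 band shift on immunoblot. TOMM20 ubiquitylation was blotted in YFP-PRKN hTERT-RPE1 cells after 1 h antimycin A/oligomycin A (1 μM each).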

USP17 = target: T2, USP17 (Homo sapiens, UniProt Q6R6M4)
T2 construct: gene USP17L2
T2 sequence (Q6R6M4 1-530): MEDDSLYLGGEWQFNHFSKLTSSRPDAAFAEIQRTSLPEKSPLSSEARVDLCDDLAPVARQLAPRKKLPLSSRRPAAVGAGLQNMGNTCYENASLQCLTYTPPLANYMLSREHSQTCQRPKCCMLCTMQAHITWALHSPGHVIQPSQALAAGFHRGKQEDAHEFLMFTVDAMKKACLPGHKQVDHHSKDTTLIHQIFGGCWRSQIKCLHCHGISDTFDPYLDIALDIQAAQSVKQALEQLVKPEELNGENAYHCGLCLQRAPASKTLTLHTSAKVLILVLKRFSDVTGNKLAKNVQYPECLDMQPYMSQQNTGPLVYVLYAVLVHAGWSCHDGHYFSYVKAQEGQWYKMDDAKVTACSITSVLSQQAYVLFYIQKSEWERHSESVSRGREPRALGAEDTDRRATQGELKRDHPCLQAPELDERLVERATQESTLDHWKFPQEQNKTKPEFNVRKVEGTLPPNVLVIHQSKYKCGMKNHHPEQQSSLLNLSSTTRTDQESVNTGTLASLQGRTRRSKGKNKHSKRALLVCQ
Method in brief: as §1

VCPIP = target: T3, VCPIP (Homo sapiens, UniProt Q96JH7)
T3 construct: gene VCPIP1
T3 sequence (Q96JH7 1-1222): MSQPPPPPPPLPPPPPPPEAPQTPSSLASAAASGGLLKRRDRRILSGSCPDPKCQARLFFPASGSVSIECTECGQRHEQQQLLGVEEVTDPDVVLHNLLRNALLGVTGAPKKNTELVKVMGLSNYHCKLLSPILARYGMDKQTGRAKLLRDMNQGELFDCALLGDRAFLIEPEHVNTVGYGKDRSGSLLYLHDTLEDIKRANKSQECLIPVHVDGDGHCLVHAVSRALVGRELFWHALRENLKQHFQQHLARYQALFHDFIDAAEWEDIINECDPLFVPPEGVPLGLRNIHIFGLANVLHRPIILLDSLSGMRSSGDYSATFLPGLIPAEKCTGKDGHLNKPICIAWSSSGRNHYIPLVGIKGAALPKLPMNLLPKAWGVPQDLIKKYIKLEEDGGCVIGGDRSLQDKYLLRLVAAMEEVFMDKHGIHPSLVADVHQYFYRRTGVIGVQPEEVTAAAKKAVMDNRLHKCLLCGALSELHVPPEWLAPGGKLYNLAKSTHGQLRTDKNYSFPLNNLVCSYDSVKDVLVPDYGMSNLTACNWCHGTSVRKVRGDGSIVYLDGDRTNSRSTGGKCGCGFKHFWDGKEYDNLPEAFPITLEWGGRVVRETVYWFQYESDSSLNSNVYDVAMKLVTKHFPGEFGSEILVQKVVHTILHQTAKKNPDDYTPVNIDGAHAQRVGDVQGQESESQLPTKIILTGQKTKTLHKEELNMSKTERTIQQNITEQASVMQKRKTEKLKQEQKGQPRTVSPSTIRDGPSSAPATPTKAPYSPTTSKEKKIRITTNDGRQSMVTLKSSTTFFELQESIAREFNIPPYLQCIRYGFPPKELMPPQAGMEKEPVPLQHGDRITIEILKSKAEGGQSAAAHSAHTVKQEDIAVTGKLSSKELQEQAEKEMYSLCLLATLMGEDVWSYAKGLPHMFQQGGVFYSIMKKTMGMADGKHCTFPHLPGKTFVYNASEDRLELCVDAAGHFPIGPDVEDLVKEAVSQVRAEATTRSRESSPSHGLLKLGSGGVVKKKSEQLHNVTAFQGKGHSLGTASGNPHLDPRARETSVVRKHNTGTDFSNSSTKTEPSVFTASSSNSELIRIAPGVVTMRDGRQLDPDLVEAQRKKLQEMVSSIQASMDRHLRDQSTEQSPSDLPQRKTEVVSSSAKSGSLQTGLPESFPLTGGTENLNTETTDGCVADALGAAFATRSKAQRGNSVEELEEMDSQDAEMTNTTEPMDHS
Method in brief: as §1

T1 sequence (P54252 whole entry): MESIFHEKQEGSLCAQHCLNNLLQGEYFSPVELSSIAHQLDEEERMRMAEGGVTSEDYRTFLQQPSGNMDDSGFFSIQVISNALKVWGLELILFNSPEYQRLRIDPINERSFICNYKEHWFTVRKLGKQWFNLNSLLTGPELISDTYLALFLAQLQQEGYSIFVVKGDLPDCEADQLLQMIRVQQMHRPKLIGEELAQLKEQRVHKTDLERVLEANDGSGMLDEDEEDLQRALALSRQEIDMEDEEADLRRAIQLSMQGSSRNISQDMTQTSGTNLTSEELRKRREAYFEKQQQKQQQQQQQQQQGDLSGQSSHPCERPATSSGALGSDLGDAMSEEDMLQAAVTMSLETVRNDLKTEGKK

- remaining activity at 1 µM (USP17): 110%
- remaining activity at 10 µM (USP17): 119%
- remaining activity at 100 µM (USP17): 102%
- remaining activity at 1 µM (VCPIP): 109%
- remaining activity at 10 µM (VCPIP): 96.5%
- remaining activity at 100 µM (VCPIP): 95.6%
SMILES: CC(C)(C)NS(=O)(=O)c1ccc(NC(=O)[C@H](Cc2ccccc2)NC(=O)c2ccc(F)cc2)cc1 [compound 39, CMPD-39]
- remaining activity at 1 µM (Ataxin3): 102%
- remaining activity at 10 µM (Ataxin3): 102%
- remaining activity at 100 µM (Ataxin3): 101%
